Data: PMC6678097, “Machilin A Inhibits Tumor Growth and Macrophage M2 Polarization Through the Reduction of Lactic Acid” (Cancers, 2019)

Tests used:
[1] = tested on: human liver cytochrome P450 1A1 (CYP1A1); settings: cited from earlier work
[2] = molecular target: T1, purified recombinant human LDHA (rhLDHA) (Homo sapiens, UniProt P00338); assay: NADH binding assay (LDHA binding to Cibacron Blue 3GA agarose); settings: machilin A 10 and 100 μM; NADH positive control
T1 construct: made in house
Procedure: An NADH binding assay was performed as described previously. The NADH binding ability of LDHA was determined by measuring the affinity of LDHA to agarose-immobilized Cibacron Blue 3GA, which resembles NADH. Then, 400 ng of purified recombinant human LDHA (rhLDHA) was incubated with NADH or MA, followed by incubation with 30 µL of Cibacron Blue agarose at 4 °C for 2 h. After a washing step with 20 mM Tris-HCl (pH 8.6), LDHA bound to beads was eluted in PBS using a sodium dodecyl sulfate (SDS) gel running buffer and was then subjected to–SDS-polyacrylamide gel electrophoresis (SDS-PAGE) and western blotting. Standardized amounts of protein were used in each reaction.

[3] = tested on: RAW264.7 macrophage cells; assay: Viability of macrophage cells, MTT; type: cell-based; settings: direct treatment, 24 h
Procedure: Figure S10. The viabilities of HUVECs and RAW264.7 cells on MA. (A) HUVECs were treated with indicated concentration of machilin A for 24 h. The viabilities of cells were evaluated by MTT assay.
(B ) HUVECs seeded to the Matrigel-coated wells treated with machilin A for 24 h. ( C) Raw 264.7 macrophage cells were treated with indicated concentration of machilin A for 24 h. The viabilities of cells were evaluated by MTT assay.
(1 picture or pasted object on this page, not shown here)

[4] = molecular target: LDHA (Homo sapiens, UniProt P00338); assay: Intracellular LDH activity in lysates of MA-treated cancer cells; type: cell-based; set-up: One microgram of total protein from cell or tissue lysates was used for intracellular or in vivo LDH assays; endogenous in cells; host or cells: WiDr, DLD-1, RKO, HT29, MCF7, Huh-7, HepG2, Hep3B, HCC-95, NCI-H1793; settings: for IC50: normoxic
Procedure: A purification of recombinant LDHA was performed as described previously. LDH activity was determined by measuring the decrease of absorbance at 340 nm due to the oxidation of NADH in 20 mM HEPES-K^+, 0.05% bovine serum albumin (BSA), 20 μM NADH, and 2 mM pyruvate (Sigma-Aldrich, St. Louis, MO, USA) at a pH of 7.2 using a spectrofluorometer (Spectramax M2, Molecular Devices, San Jose, CA, USA; excitation 340 nm; emission 460 nm), as described previously. Ten nanograms of recombinant LDHA protein were used in the in vitro LDH activity assay. One microgram of total protein from cell or tissue lysates was used for intracellular or in vivo LDH assays.

[5] = tested on: Hep3B; assay: Lactate production assay; type: cell-based, human; settings: normoxic
Procedure: (§1) Cellular lactate production was measured using a lactate fluorometric assay kit (Biovision, Milpitas, CA, USA) as described previously. Phenol red-free DMEM medium without FBS was added to a six-well plate containing subconfluent cells which were then incubated for 1 h at 37 °C. After incubation, the medium of each well was tested using a lactate assay kit (Biovision, Milpitas, CA, USA).

[6] = tested on: Huh7; assay: Lactate production assay; type: cell-based, human; settings: normoxic
Procedure: as §1

[7] = tested on: HCC-95; assay: Lactate production assay; type: cell-based, human; settings: normoxic
Procedure: as §1

[8] = tested on: R.K.O; assay: Lactate production assay; type: cell-based, human; settings: normoxic
Procedure: as §1

[9] = tested on: NCI-H1793; assay: Lactate production assay; type: cell-based, human; settings: normoxic
Procedure: as §1

[10] = tested on: WiDr; assay: Lactate production assay; type: cell-based, human; settings: normoxic
Procedure: as §1

C[C@H](Cc1ccc2c(c1)OCO2)[C@@H](C)Cc1ccc2c(c1)OCO2 [MA, bis(3,4-methylenedioxy)-8,8’-lignan]
inhibitory effect on drug metabolism [1]: selective inhibitory effect
LDHA binding to Cibacron Blue Agarose beads (NADH mimic) [2]: prohibited LDHA binding
growth of RAW264.7 macrophage cells [3]: did not directly inhibit
IC50 ([4]; DLD-1 cells): 129 ± 24.8 µM
IC50 ([4]; HCC-95 cells): 112 ± 10.1 µM
increase of LDHA activity in hypoxic condition ([4]; HT29, machilin A 30 μM, hypoxia): significantly reduced
IC50 ([4]; HT29 cells): 48.4 ± 4.33 µM
IC50 ([4]; Hep3B cells): 48.3 ± 4.13 µM
IC50 ([4]; HepG2 cells): 101 ± 40.5 µM
IC50 ([4]; Huh7 cells): 85.1 ± 20.9 µM
IC50 ([4]; MCF-7 cells): 61.2 ± 3.02 µM
IC50 ([4]; NCI-H1793 cells): 64 ± 5.61 µM
IC50 ([4]; RKO cells): 73.7 ± 20.7 µM
IC50 ([4]; WiDr cells): 61.9 ± 8.02 µM
Lactate (production) ([5]; MA 10 µM): 1120 ± 40 µM
Lactate (production) ([5]; MA 50 µM): 730 ± 10 µM
Lactate (production) ([6]; MA 10 µM): 1140 ± 320 µM
Lactate (production) ([6]; MA 50 µM): 670 ± 150 µM
Lactate (production) ([7]; MA 10 µM): 2250 ± 160 µM
Lactate (production) ([7]; MA 50 µM): 1760 ± 100 µM
Lactate (production) ([8]; MA 10 µM): 2760 ± 60 µM
Lactate (production) ([8]; MA 50 µM): 2480 ± 60 µM
Lactate (production) ([9]; MA 10 µM): 2360 ± 260 µM
Lactate (production) ([9]; MA 50 µM): 2040 ± 380 µM
Lactate (production) ([10]; MA 10 µM): 3220 ± 50 µM
Lactate (production) ([10]; MA 50 µM): 2700 ± 60 µM
